According to paper PMC12514245, “Impaired migration and lung invasion of human melanoma by a novel small molecule targeting the transmembrane domain of death receptor p75^NTR” (EMBO Molecular Medicine, 2025):
Where “and” joins values, the source holds several entries; their conditions need not be identical. Identical values can stand only once.

Experiments:
[1] = test system: A875 shp75 knock-down cells; assay: Cleaved PARP western blot (apoptosis), A875 shp75; assay type: cell-based, human
Experimental: One of the main biological readouts of p75^NTR activity in response to neurotrophins is the induction of caspase-mediated apoptotic cell death (Underwood and Coulson, [2008]; Friedman, [2010]; Ibáñez and Simi, [2012]).
COS7, A875 and WM115 cell lines were cultured under standard conditions in DMEM supplemented with 10% fetal calf serum, 100 units/ml penicillin, […] streptomycin, and 2.5 mM glutamine. All cells were authenticated and tested for mycoplasma contamination. A875-NT (control) and A875 shp75 (knockdown) cell lines were described previously (Goh et al, [2018]).

[2] = test system: fascin in Triton-insoluble fraction of A875 NT cells; assay: Detergent-insolubility assay of fascin, A875 NT; assay type: cell-based, human; settings: for Fold change (compared to untreated cells): insoluble/total fascin
Experimental: A single cell suspension was obtained by trypsinization followed by centrifugation and detergent extraction with lysis buffer (with 0.5% Triton X-100). Then, immediately centrifuged at 8700 g for 3 min. The resulting pellets (containing the Triton X-100-resistant proteins) were suspended in lysis buffer without Triton X-100. In parallel, cells were centrifuged and then directly suspended in lysis buffer. The Triton X-100- resistant proteins and total cell lysates were analyzed by SDS–PAGE and Western blotting with anti-fascin antibody.

WM115 cells = assay: Boyden chamber chemotaxis assay, WM115; assay type: cell-based, human; settings: for values normalized to vehicle, mean (Figure 6E): mean of EXP1-3; for values normalized to vehicle (Figure 6E): single experiments EXP1-3
Experimental: For Boyden chamber assay, Corning® BioCoat™ Matrigel® Invasion Chambers 8.0 µm PET Membrane were used (cat. no. 354480). A875 NT or WM115 cells were serum-starved for 16 h and then seeded at 60,000 cells per well in serum-free media under different conditions, including DMSO (vehicle) or small molecules Div17E5 or Np75-4A22 at different concentrations to the top chamber of the Matrigel-coated trans-well chamber. The pan-caspase inhibitor Q_VD_poH (at 5 µM) was also introduced in the top chamber in some experiments. Two different chemoattractants, NGF (at 50 ng/ml or 100 ng/ml as indicated) or 10% FBS were added to the bottom chamber. Assays were carried out for 8 h after which filters were fixed in 4% PFA and stained with DAPI. Cells that had remained on the top of the filter were gently scrapped away with a cotton tip. The filter lower side was imaged on an inverted fluorescence microscope and counted using ImageJ software (NIH).

[3] = test system: A875-NT melanoma xenograft; assay: Melanoma lung invasion assay, A875-NT, delayed treatment 3 weeks after cell injection; assay type: in vivo, SCID mice
Experimental: Finally, we investigated whether delayed administration of Np75-4A22 was able to affect engraftment and growth of metastatic tumors in the lung. To this end, drug treatment (orally at 200 mg/kg) was initiated 3 weeks after intravenous injection of A875-NT or A875-shp75 cells in female SCID mice and continued for additionally 4 weekly cycles (5 days on/2 days off) as above (Fig. 8E). Metastatic spread to the lungs was monitored weekly by bioluminescent imaging of luciferase-expressing melanoma cells. […] We conclude that Np75-4A22 can be efficacious at reducing the spread and seeding of melanoma cells in the lung when administered either before or after cell implantation.
Eight-week-old female SCID mice (Charles River Laboratories, Shrewsbury, MA, USA) were housed in groups of three to five and maintained on a 12-h light/dark schedule with a temperature of 22 °C ± 1 °C and a relative humidity of 50% ± 5%. Food and water were available ad libitum. This research study was reviewed and approved by the University of Calgary Animal Care Committee (AC22-0054) and McGill University (AUP-JGH-8269) and adheres to established ethical principles and guidelines. A875-GFPLuc (A875-NT) or A875-GFPLuc shp75 (A875-shp75) cells harvested using Puck’s EDTA were resuspended in PBS and injected intravenously into SCID mice (5 × 10^5 cells/200 μl per mouse). Np75-4A22 was dissolved in 0.5% sodium carboxymethyl cellulose (NaCMC) in reverse osmosis H2O and administered by oral gavage at 200 mg/kg/day starting one day prior to intravenous (tail vein) injection of tumor cells and continued for 3 1-week cycles (cycle: 5 days on drug, 2 days off drug). Tumor spread to the lung was monitored weekly by luciferase activity using the Xenogen IVIS-200 Optical in vivo luciferase imaging system as described previously (Lun et al, [2016]) and by immunohistochemistry (IHC) at designated time points. IHC was performed after formalin fixation, paraffin embedding and sectioning of the lungs, using a human-specific mouse polyclonal nucleolin antibody (1:500 dilution) and detected using Dako liquid DAB+ Substrate Chromogen System (Dako: k3468, California, USA) followed by a hematoxylin counterstain (Sigma, Oakville, ON, Canada). Sections were mounted and imaged on an Olympus phase contrast microscope (Olympus Life Science, Tokyo, Japan). For immunofluorescence, sections were stained with anti-human nucleolin and anti-human p75NTR antibodies (1:1000 dilution), subsequently detected with 1:200 dilutions of Alexa Fluor™ 488 Goat anti-Mouse IgG (H + L) Highly Cross-Adsorbed Secondary Antibody and Alexa Fluor™ 568 Goat anti-Rabbit IgG (H + L) Cross-Adsorbed Secondary Antibody. Sections were further stained with DAPI to detect all nuclei. Between each treatment, TBS Automation Wash Buffer (Biocare Medical TWB945M) was employed. Images were taken with LSM800 confocal microscope and ZEN system.

How did the “apoptosis (cleavage of PARP) after p75NTR knock-down” value [1] turn out when `Oc1ccc(-c2cncc(Nc3ccc(Br)c(Cl)c3)n2)cc1` [Div17E5] was run?
The value was “significantly reduced the pro-apoptotic effects”.

Which results are given for `Cc1cccc(-c2cncc(Nc3ccc(Br)c(Cl)c3Cl)n2)c1C` [Np75-4A22]?
Toral fascin without background ([2]; 1 μM 4A22, band OD, n1-n3): 39995.1 and 74813.2 and 39347.1; Fold change (compared to untreated cells) ([2]; 1 μM 4A22, n1-n3): 0.751 and 0.708 and 0.695; NGF-increased fascin in detergent insoluble fraction ([2]; 1 μM, NGF 100 ng/ml): blocked this effect; Fold change (compared to untreated cells) ([2]; NGF + 1 μM 4A22, n1-n3): 0.947 and 0.577 and 0.569; values normalized to vehicle, mean (Figure 6E) (WM115 cells; 100 ng/ml NGF & 1 uM 4A22): 1.0063; values normalized to vehicle (Figure 6E) (WM115 cells; 100 ng/ml NGF & 1 uM 4A22): 0.9175 and 0.9379 and 1.163; spontaneous migration of WM115 cells (WM115 cells; 1μM): without affecting the spontaneous migration; values normalized to vehicle, mean (Figure 6E) (WM115 cells; 1 uM 4A22): 0.8431; values normalized to vehicle (Figure 6E) (WM115 cells; 1 uM 4A22): 0.9343 and 0.8878 and 0.7073; NGF-induced migration of WM115 cells (WM115 cells; 1 μM, NGF 100 ng/ml): blocked this activity; Average Photons/second/week, wk2 ([3]; A875-NT, group average, wk2): 7.77E+04 Photons/second; Average Photons/second/week, wk3 ([3]; A875-NT, group average, wk3): 1.89E+05 Photons/second; Average Photons/second/week, wk4 ([3]; A875-NT, group average, wk4): 1.70E+05 Photons/second; Average Photons/second/week, wk5 ([3]; A875-NT, group average, wk5): 3.04E+05 Photons/second; Average Photons/second/week, wk6 ([3]; A875-NT, group average, wk6): 8.45E+05 Photons/second; Average Photons/second/week, wk7 ([3]; A875-NT, group average, wk7): 3.17E+06 Photons/second; Photons/second/ mouse/week, wk2 ([3]; A875-NT, individual mouse, wk2): 7.00E+04 Photons/second and 7.88E+04 Photons/second and 6.89E+04 Photons/second and 1.01E+05 Photons/second and 8.02E+04 Photons/second and 7.86E+04 Photons/second and 8.67E+04 Photons/second and 5.74E+04 Photons/second; Photons/second/ mouse/week, wk3 ([3]; A875-NT, individual mouse, wk3): 1.59E+05 Photons/second and 1.50E+05 Photons/second and 1.97E+05 Photons/second and 3.40E+05 Photons/second and 2.35E+05 Photons/second and 1.26E+05 Photons/second and 1.46E+05 Photons/second; Photons/second/ mouse/week, wk4 ([3]; A875-NT, individual mouse, wk4): 1.44E+05 Photons/second and 1.39E+05 Photons/second and 1.26E+05 Photons/second and 1.15E+05 Photons/second and 2.32E+05 Photons/second and 2.12E+05 Photons/second and 2.11E+05 Photons/second and 1.82E+05 Photons/second; Photons/second/ mouse/week, wk5 ([3]; A875-NT, individual mouse, wk5): 2.30E+05 Photons/second and 1.68E+05 Photons/second and 2.24E+05 Photons/second and 7.71E+05 Photons/second and 3.62E+05 Photons/second and 2.51E+05 Photons/second and 2.06E+05 Photons/second and 2.23E+05 Photons/second; Photons/second/ mouse/week, wk6 ([3]; A875-NT, individual mouse, wk6): 1.70E+05 Photons/second and 6.38E+04 Photons/second and 3.70E+05 Photons/second and 3.16E+06 Photons/second and 2.58E+06 Photons/second and 1.54E+05 Photons/second and 1.46E+05 Photons/second and 1.19E+05 Photons/second; Photons/second/ mouse/week, wk7 ([3]; A875-NT, individual mouse, wk7): 5.60E+05 Photons/second and 5.09E+05 Photons/second and 3.70E+06 Photons/second and 1.34E+07 Photons/second and 6.38E+06 Photons/second and 2.75E+05 Photons/second and 2.70E+05 Photons/second and 2.40E+05 Photons/second; lung tumors (bioluminescent imaging), delayed treatment ([3]; oral 200 mg/kg, started 3 weeks after cell injection, 4 weekly cycles): reducing A875-NT lung tumors to very low levels
